Holding throughout (assay): NCI tumour cell line growth inhibition, 48 h
For assay [1], the system named is KM12 colon.
For assay [2], the system named is U251 CNS.
Assay [3] relates to HCT-116 colon.
In assay [4] the test system is COLO 205 colon.
The subject of assay [5] is BT-549 breast.
Assay [6] deals with CCRF-CEM leukemia.
Assay [7] concerns OVCAR-5 ovarian.
For assay [8], the system named is HT29 colon.
Assay [9] has as its system SK-MEL-5 melanoma.
Assay [10] has as its system SK-OV-3 ovarian.
Assay [11] has as its system K-562 leukemia.
For assay [12], the system named is OVCAR-3 ovarian.
Assay [13] relates to HOP-92 NSCLC.

Molecules are shown by their SMILES.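 Where inhibition never reached the appropriate level, the endpoint shown equals the highest concentration tested. Otherwise, values were interpolated linearly from a five-concentration, 48-hour dose response in 96-well plates. At the GI50, growth is halved. The concentration for full growth arrest is given as TGI.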 Where a SMILES comes first, the peptide text is derived from it. [ ]: non-standard residue; d: D form. pGlu = O=C1CC[CH](C(=O)O)N1; Thz = O=C(O)[CH]1CSCN1

Consider `CCOC(=O)C12CCC(=O)N1N(C)c1ncccc1N2` (stereo unspecified), for which the TGI in assay [1], in [2], in assay [3], in assay [4], in assay [5] and in [6] was above 100 µM each time. The TGI in assay [7], in assay [8], in assay [9], in [10], in assay [11] and in [12] was above 100 µM throughout.

With `COC(=O)CCc1ccc(CCC(=O)OC)cc1`, the TGI in [2], in [3], in assay [6], in [13], in [7] and in [8] was above 100 µM in each case. Further, the TGI in assay [9], in assay [10], in [11] and in assay [12] was above 100 µM in each case.

On to `COc1ccc(N2C(=O)C3CC(c4ccc(Br)cc4)c4c([nH]c5ccccc45)C3C2=O)cc1` (stereo unspecified), for which the TGI in assay [1] is above 100 µM; in assay [3], 16.1 µM; in [4] it was 34.8 µM; in assay [6], above 100 µM; in assay [13], 29.3 µM; in [7], 73.4 µM. In addition, the TGI in assay [8] stood at 44.5 µM; in assay [9] it was 35.5 µM; in [11], 27.8 µM.

For the molecule `O=C1CCC(C(=O)N2CSCC2C(=O)O)N1` (stereo unspecified) ([pGlu]-[Thz]-OH; configuration not given here), the TGI in assay [1], in assay [5], in assay [6], in assay [7], in assay [8] and in assay [9] was above 100 µM each time. In addition, the TGI in assay [10], in assay [11] and in [12] was above 100 µM each time.

Consider `O=[N+]([O-])c1ncc(N(CCO)CCO)s1`, for which the TGI in [1] is above 100 µM; in assay [2] it was above 100 µM; in [3], above 100 µM; in assay [4] it was 49.6 µM; in [5], 80.6 µM; in assay [6], 56.9 µM. Also, the TGI in assay [7] was above 100 µM; in assay [8] it was above 100 µM; in [10] it was above 100 µM; in [11] it was 57.5 µM; in [12] it was above 100 µM.

With `CCOP(=O)(CC(=O)C1CC1)OCC`, the TGI in [1], in [2], in assay [3], in assay [4], in assay [5] and in assay [6] was above 100 µM in each case. For the same molecule, the TGI in assay [7], in [8], in assay [9], in assay [10] and in [11] was above 100 µM in each case.

With `FC1(F)ON2CCc3ccccc3C2[C@H]1c1ccccc1` (stereo partly specified), the GI50 in assay [1], in assay [4], in assay [7], in assay [8], in assay [9] and in assay [10] was above 100 µM each time. Besides, the GI50 in assay [11] is above 100 µM. For the same molecule, the TGI in [1], in assay [2], in assay [3], in assay [4], in assay [6] and in assay [7] was above 100 µM each time. In addition, the TGI in [8], in [9], in assay [10], in assay [11] and in assay [12] was above 100 µM each time.

`Fc1cc(C2=Nn3c(COc4ccccc4Cl)nnc3S/C2=C\c2ccc(Cl)cc2)c(Cl)cc1Cl`: the TGI was 19.6 µM in assay [1]; 80.2 µM in [2]; 26.1 µM in [3]; above 100 µM in assay [6]; 20.2 µM in assay [13]; above 100 µM in assay [7]. The TGI in assay [8] is above 100 µM; in [9] it was 19 µM; in [10] it was above 100 µM; in assay [11], above 100 µM; in assay [12] it was 62 µM.

In the case of `COc1ccc(CCN2CCN(CCCc3ccccc3)CC2)cc1`, the TGI in assay [1] is above 100 µM; in assay [2], above 100 µM; in assay [3] it was above 100 µM; in [4], 54.3 µM; in assay [5], above 100 µM; in assay [6], above 100 µM. Besides, the TGI is above 100 µM in assay [7]; above 100 µM in [8]; 56.9 µM in assay [9]; above 100 µM in assay [10]; above 100 µM in assay [11]; above 100 µM in [12].

For the molecule `O=C1c2ccccc2N(O)C1(c1ccccc1)C1CCCC=C1N1CCOCC1` (stereo unspecified), the TGI in assay [2], in assay [3], in assay [4], in [6], in [7] and in assay [8] was above 100 µM each time. The TGI in assay [9], in [10], in [11] and in [12] was above 100 µM each time.

With `O=C(OC1=CCN(Br)C1=O)C1=C(O)C(=O)N(Br)C1`, the TGI is above 100 µM in assay [1]; 58.1 µM in assay [2]; 35.6 µM in assay [3]; 54.4 µM in [4]; 46 µM in assay [5]; above 100 µM in assay [6]. In addition, the TGI was 52.8 µM in [7]; 33.5 µM in assay [9]; 71.2 µM in assay [10]; above 100 µM in assay [11]; 51.6 µM in [12].

As to `CC1CCN(C(C)C)P(=S)(Cc2ccccc2)O1` (stereo unspecified), the TGI in assay [1], in assay [2], in [3], in assay [4], in assay [5] and in assay [7] was above 100 µM in each case. The TGI in assay [8], in assay [9], in assay [10], in [11] and in [12] was above 100 µM throughout.

`CCn1c(SCC(=O)N/N=C2\SCC(=O)N2c2ccc(C)cc2)nc2ccccc2c1=O`: the TGI in assay [1] is 47.3 µM; in assay [2] it was 46.1 µM; in assay [3] it was 35.9 µM; in assay [4], above 100 µM; in assay [6], above 100 µM; in [7], 48.2 µM. In addition, the TGI in assay [8] is 31.2 µM; in [9], 50 µM; in [10] it was 36 µM; in assay [11], above 100 µM; in assay [12], 62.9 µM.

Consider `OC1NC2Nc3ccccc3NC2NC1O` (stereo unspecified), for which the TGI in assay [1], in [2], in [3], in assay [4], in [6] and in [13] was above 100 µM throughout. The TGI in [7], in [8], in [9], in assay [10], in [11] and in [12] was above 100 µM throughout.

In the case of `CC(NC1=NCCO1)c1ccccc1Cl` (stereo unspecified), the TGI in [1] was above 100 µM; in [2] it was above 100 µM; in [3], above 100 µM; in assay [4] it was above 100 µM; in assay [6] it was above 100 µM; in assay [13] it was 73 µM. Further, the TGI in [7], in assay [8], in assay [9], in assay [10], in [11] and in [12] was above 100 µM throughout.

For the molecule `COC(=O)C1=C(C)NC(=O)N2[C@@H](CCOCc3ccccc3)CC[C@@H]12`, the TGI in assay [1], in [2], in assay [4], in assay [6], in [13] and in assay [7] was above 50 µM throughout. In addition, the TGI in assay [8], in assay [9], in assay [10], in assay [11] and in assay [12] was above 50 µM throughout.

For `COc1ccc(S(=O)(=O)Nc2ccc(-c3csc(N4C(=O)/C(=C/c5ccccc5[N+](=O)[O-])N=C4c4ccccc4)n3)cc2)cc1Cl`, the TGI in assay [1] was above 100 µM; in [2] it was above 100 µM; in [3] it was above 100 µM; in assay [4] it was above 100 µM; in assay [13], 87.5 µM; in assay [7], above 100 µM. Also, the TGI in [8], in assay [9], in assay [10], in [11] and in [12] was above 100 µM throughout.

`CC(C)(C)C1=C(Br)C(F)(C(C)(C)C)OP1(=O)c1ccccc1` (stereo unspecified): the TGI in assay [1] came out at 33.7 µM; in assay [2], 31.3 µM; in [3], 31.8 µM; in [4] it was 29.4 µM; in assay [13], 34.2 µM; in assay [7], 36.6 µM. The TGI in [8] amounted to 35 µM; in [9] it was 22.9 µM; in assay [10], 32.2 µM; in assay [11], 22.9 µM; in [12] it was 28.8 µM.

In the case of `O=S1(=O)c2ccccc2N(O)C2=NCCN21`, the TGI in [1], in [2], in assay [3], in assay [4], in [6] and in assay [13] was above 100 µM in each case. The TGI in [7], in [8], in [9], in assay [10], in [11] and in assay [12] was above 100 µM throughout.

Regarding `COc1ccc2c(c1)c1c3c(ccc4ncn2c43)N(CCO)CCN=1`, the TGI in assay [1] was 1.22 µM; in assay [2], 1.09 µM; in [3] it was 0.214 µM; in [4], 0.158 µM; in assay [6] it was 0.305 µM; in assay [13], 5.2 µM. Besides, the TGI in [7] amounted to 0.715 µM; in [8], 0.898 µM; in assay [9], 0.403 µM; in assay [10], 2.03 µM; in assay [11], 0.228 µM; in assay [12] it was 0.648 µM.

In the case of `CCOC(=O)C(NC(=O)c1cccc(Cl)c1)(Nc1ccc(S(=O)(=O)Nc2cc(C)on2)cc1)C(F)(F)F` (stereo unspecified), the TGI in assay [1], in assay [2], in assay [3], in [4], in [6] and in assay [13] was above 100 µM each time. Also, the TGI in assay [7], in assay [8], in [9], in assay [10], in assay [11] and in [12] was above 100 µM each time.

`COC(=O)c1cc2c(c(C(=O)OC)c1)CCC2`: the TGI in assay [2], in [3], in [6], in assay [13], in [7] and in assay [8] was above 100 µM throughout. Also, the TGI in [9], in assay [10], in assay [11] and in assay [12] was above 100 µM each time.

As to `Cc1ccc2c(c1)nc1n2C(c2c(F)cccc2F)SC1` (stereo unspecified), the TGI was above 100 µM in [1]; above 100 µM in [2]; 72.3 µM in assay [3]; above 100 µM in assay [4]; above 100 µM in assay [6]; above 100 µM in [7]. Besides, the TGI in [8], in [10], in assay [11] and in assay [12] was above 100 µM in each case.

For the molecule `O=C1C(Cl)=C(Cl)C(=O)C(CCNc2nccs2)=C1Cl`, the TGI in assay [1] was above 100 µM; in assay [2] it was above 100 µM; in assay [3] it was 68.4 µM; in assay [4], above 100 µM; in assay [6] it was above 100 µM; in assay [13], 58.2 µM. Further, the TGI in assay [7] is above 100 µM; in [8], above 100 µM; in assay [9], 50.1 µM; in [10], above 100 µM; in assay [11] it was above 100 µM; in [12], 49.8 µM.
